According to patent US9212165B2, “Bicarbocyclic and tricarbocyclic ethynyl derivatives and uses of same” (H. Lundbeck A/S, priority 2011, dated 2015):

molecular target: mGluR5 (MPEP binding site) (Homo sapiens (Human), UniProt P41594); assay: Radioligand binding assay (MPEP site radioligand, membrane filtration); conditions: 5 nM radioligand binding to MPEP site; Cheng-Prusoff
Method: Binding assays were performed as described in [J. A. O'Brien et al. Mol Pharmacol., 2003, 64, 731-740] with slight modifications, including that a radioligand that binds to the […] (MPEP) binding site was used in place of [^3H] MPEP. Briefly, after thawing, the membrane homogenates were resuspended in 50 mM Tris-HCl and 0.9% NaCl binding buffer at pH 7.4 to a final assay concentration of 20 μg protein/well for radioligand filtration binding. Incubations included 5 nM radioligand, membranes and either buffer or varying concentrations of compound. Samples were incubated for 60 min at room temperature with shaking. Non-specific binding was defined with 10 μM cold MPEP when using the radioligand. After incubation, samples were filtered over a GF/C filter (presoaked in 0.25% polyethyleneimine (PEI)) and then washed 4 times using a Tomtec® Harvester 96® Mach III cell harvester (Tomtec, Hamden, Conn.) with 0.5 mL ice-cold 50 mM Tris-HCl (pH 7.4).
IC50 values were derived from the inhibition curve and Ki values were calculated according to the Cheng and Prusoff equation of Ki=IC50/(1+[L]/Kd) described in [Y. Cheng and W. H. Prusoff Biochem. Pharmacal. 1973, 22, 3099-3108] where [L] is the concentration of radioligand and Kd is its dissociation constant at the receptor, derived from the saturation isotherm.

Chain of mGluR5 (MPEP binding site) (P41594 21-1212): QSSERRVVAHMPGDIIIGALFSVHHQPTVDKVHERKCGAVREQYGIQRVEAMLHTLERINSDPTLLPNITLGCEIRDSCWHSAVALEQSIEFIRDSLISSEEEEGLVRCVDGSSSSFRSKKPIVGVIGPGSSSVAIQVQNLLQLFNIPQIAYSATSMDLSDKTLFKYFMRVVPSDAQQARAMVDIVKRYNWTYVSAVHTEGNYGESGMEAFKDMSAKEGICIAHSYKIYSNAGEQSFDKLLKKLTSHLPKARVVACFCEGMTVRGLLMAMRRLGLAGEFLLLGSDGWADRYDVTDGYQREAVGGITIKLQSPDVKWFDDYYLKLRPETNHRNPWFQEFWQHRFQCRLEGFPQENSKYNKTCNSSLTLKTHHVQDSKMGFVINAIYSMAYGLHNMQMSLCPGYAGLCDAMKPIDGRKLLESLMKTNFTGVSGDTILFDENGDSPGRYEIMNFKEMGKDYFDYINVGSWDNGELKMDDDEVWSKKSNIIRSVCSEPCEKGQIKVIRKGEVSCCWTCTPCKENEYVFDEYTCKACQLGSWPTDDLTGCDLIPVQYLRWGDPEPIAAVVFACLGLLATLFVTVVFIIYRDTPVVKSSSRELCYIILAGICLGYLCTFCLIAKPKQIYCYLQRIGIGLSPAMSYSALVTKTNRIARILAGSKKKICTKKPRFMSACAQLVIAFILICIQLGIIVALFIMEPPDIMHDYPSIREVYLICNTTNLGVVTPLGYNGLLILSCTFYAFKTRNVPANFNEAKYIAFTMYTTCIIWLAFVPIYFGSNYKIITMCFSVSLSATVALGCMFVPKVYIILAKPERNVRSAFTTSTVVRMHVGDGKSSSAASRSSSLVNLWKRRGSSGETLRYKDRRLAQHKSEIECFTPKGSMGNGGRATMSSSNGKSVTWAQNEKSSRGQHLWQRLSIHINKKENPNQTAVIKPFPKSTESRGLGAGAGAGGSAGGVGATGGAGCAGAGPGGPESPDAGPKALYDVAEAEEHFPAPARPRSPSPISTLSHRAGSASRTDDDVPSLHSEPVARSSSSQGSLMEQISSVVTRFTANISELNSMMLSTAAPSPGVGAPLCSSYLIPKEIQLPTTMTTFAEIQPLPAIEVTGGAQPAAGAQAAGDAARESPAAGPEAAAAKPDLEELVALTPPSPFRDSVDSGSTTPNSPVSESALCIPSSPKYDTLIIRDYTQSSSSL

| SMILES | Ki [nM] |
| --- | --- |
| O=C(NC12CCCC(C#Cc3cnccn3)(CC1)C2)c1cccc(Cl)c1 (stereo not shown) [Example 13, 3-Chloro-N-(5-pyrazin-2-ylethynyl-bicyclo[3.2.1]oct-1-yl)-benzamide] | 91 |
| O=C(N[C@@]12CCC[C@@](C#Cc3ccccn3)(CC1)C2)c1ccc(F)cn1 [Example 30, 5-fluoro-N-((1S,5R)-5-(pyridin-2-ylethynyl)bicyclo[3.2.1]octan-1-yl)picolinamide] | 35 |
| Cn1ccc(C(=O)N[C@@]23CCC[C@@](C#Cc4cnccn4)(CC2)C3)n1 [Example 49, 1-methyl-N-((1S,5R)-5-(pyrazin-2-ylethynyl)bicyclo[3.2.1]octan-1-yl)-1H-pyrazole-3-carboxamide] | 590 |
| Cc1csc(C(=O)N[C@@]23CCC[C@@](C#Cc4cnccn4)(CC2)C3)n1 [Example 50, 4-methyl-N-((1S,5R)-5-(pyrazin-2-ylethynyl)bicyclo[3.2.1]octan-1-yl)thiazole-2-carboxamide] | 38 |
| Cc1cncc(C#CC23CC4CC(C2)CC(NC(=O)c2cccc(F)c2)(C4)C3)n1 [Example 56, 3-fluoro-N-[3-(6-methylpyrazin-2-ylethynyl)-1-adamantyl]benzamide] | 1300 |
| Cc1csc(C#CC23CC4CC(C2)CC(NC(=O)c2ccn(C)n2)(C4)C3)n1 [Example 81, 1-methyl-N-[3-(4-methylthiazol-2-ylethynyl)-1-adamantyl]-1H-pyrazole-3-carboxamide] | 120 |

More lines, in order of falling Ki, values ahead:

| Ki [nM] | SMILES |
| --- | --- |
| 34 | Cn1ccc(C(=O)N[C@]23CCC[C@](C#Cc4cnccn4)(CC2)C3)n1 [Example 44, 1-methyl-N-((1R,5S)-5-(pyrazin-2-ylethynyl)bicyclo[3.2.1]octan-1-yl)-1H-pyrazole-3-carboxamide] |
| 17 | Cc1nccc(C(=O)N[C@@]23CCC[C@@](C#Cc4ccccn4)(CC2)C3)n1 [Example 28, 2-methyl-N-((1S,5R)-5-(pyridin-2-ylethynyl)bicyclo[3.2.1]octan-1-yl)pyrimidine-4-carboxamide] |
| 11 | O=C(N[C@]12CCC[C@](C#Cc3ccccn3)(CC1)C2)c1ccc(F)cn1 [Example 20, 5-fluoro-N-((1R,5S)-5-(pyridin-2-ylethynyl)bicyclo[3.2.1]octan-1-yl)picolinamide] |
| 10 | Cc1nccc(C(=O)N[C@]23CCC[C@](C#Cc4ccccn4)(CC2)C3)n1 [Example 18, 2-methyl-N-((1R,5S)-5-(pyridin-2-ylethynyl)bicyclo[3.2.1]octan-1-yl)pyrimidine-4-carboxamide] |
| 6.2 | Cc1csc(C(=O)N[C@]23CCC[C@](C#Cc4cnccn4)(CC2)C3)n1 [Example 45, 4-methyl-N-((1R,5S)-5-(pyrazin-2-ylethynyl)bicyclo[3.2.1]octan-1-yl)thiazole-2-carboxamide] |
| 4.7 | O=C(NC12CC3CC(CC(C#Cc4ccccn4)(C3)C1)C2)c1cnccn1 [Example 71, N-[3-(pyridin-2-ylethynyl)-1-adamantyl]pyrazine-2-carboxamide] |
| 3 | O=C(NC12CCCC(C#Cc3cccc(F)c3)(CC1)C2)c1cnccn1 (stereo not shown) [Example 3, pyrazine-2-carboxylic acid [5-(3-fluoro-phenylethynyl)-bicyclo[3.2.1]oct-1-yl]-amide] |
